Test results taken from US20240238258A1, “INHIBITORS OF PROTEIN TYROSINE PHOSPHATASE, COMPOSITIONS, AND METHODS OF USE” (BRISTOL-MYERS SQUIBB COMPANY, priority 2022, published 2024).

What was measured:
[1] = test system: phosphorylated STAT1 in B16-F10 cells; experiment: Phospho-STAT1 (Tyr701) HTRF assay in B16-F10 cells with IFN-gamma; assay type: cell-based; settings: mouse IFN-gamma 100 ng/mL, 1 hour, read-out: pSTAT1 HTRF B16 EC50
Procedure: B16-F10 cells (ATCC, Manassas, VA, #CRL-6475) were cultured in DMEM growth medium (ThermoFisher Scientific, Waltham, MA, #11995-040) supplemented with 10% heat inactivated FBS (ThermoFisher Scientific, #16140-071) and 1% pen/strep (ThermoFisher Scientific, #15140-122). The cells were seeded into a white opaque 384-well tissue culture treated microplate (PerkinElmer, Waltham, MA, #6007688) at a density of 10,000 cells/well in 20 uL total volume and incubated overnight at 37 C and 5% CO2. 30 nL of compounds dissolved in DMSO were then transferred from a source plate into target wells with the Echo650 acoustic liquid handler (Beckman Coulter, Indianapolis, IN). Negative control wells received 30 nL of DMSO only (0.15% final concentration). Plates were returned to the incubator for 1 hour and then cells treated with either 5 uL of growth medium or 5 uL of growth medium containing 500 ng/ml of recombinant mouse IFN-gamma protein (R&D Systems, Minneapolis, MN, #485-MI/CF, 100 ng/mL final concentration) using the Assist automated pipetting platform (INTEGRA Biosciences, Hudson, NH). Plates were incubated at 37 C for 1 hour and assayed for phosphorylated STAT1 protein levels with the phospho-STAT1 (Tyr701) HTRF kit (Cisbio, Bedford, MA, #63ADK026PEH) according to manufacturer's instructions. HTRF signal intensity was collected with the EnVision 2105 plate reader (PerkinElmer) 24 hours later and analyzed with the Dotmatics software platform to calculate compound IC50 values.

B16-F10 cells = experiment: Cell proliferation assay in B16-F10 cells with IFN-gamma (CellTiter-Glo); assay type: cell-based; settings: 120 h, mouse IFN-gamma 10 ng/mL, read-out: PTPN2 Prolif 5d B16F10 EC50
Procedure: B16-F10 cells (ATCC, Manassas, VA, #CRL-6475) were cultured in DMEM growth medium (ThermoFisher Scientific, Waltham, MA, #11995-040) supplemented with 10% heat inactivated FBS (ThermoFisher Scientific, #16140-071) and 1% pen/strep (ThermoFisher Scientific, #15140-122). The cells were seeded into two white opaque 384-well tissue culture treated microplates (PerkinElmer, Waltham, MA, #6007688) at a density of 100 cells/well in 20 uL total volume and incubated overnight at 37 C and 5% CO2. 30 nL of compounds dissolved in DMSO were then transferred from a source plate into target wells with the Echo650 acoustic liquid handler (Beckman Coulter, Indianapolis, IN). Negative control wells received 30 nL of DMSO only (0.15% final concentration). Plates were returned to the incubator for 1 hour and then cells treated with either 5 uL of growth medium or 5 uL of growth medium containing 50 ng/ml of recombinant mouse IFN-gamma protein (R&D Systems, Minneapolis, MN, #485-MI/CF, 10 ng/mL final concentration) using the Assist automated pipetting platform (INTEGRA Biosciences, Hudson, NH). Plates were incubated at 37C for 4 days and cell proliferation assayed with the CellTiter-Glo reagent (Promega, Madison, WI, #G7573, 25 uL per well). […] Off-target compound mediated cytotoxicity was identified by checking for growth inhibition in the absence of IFNg.

human PTPN2 [2] = target: T1, human PTPN2 (Homo sapiens, UniProt P17706); experiment: Phosphatase activity assay using DiFMUP as substrate (PTPN2 BCHEM DIFMUP); assay type: biochemical; design: purchased MilliporeSigma SRP5075; settings: human PTPN2 0.15 nM, 10 mM DTT, room temperature
T1 sequence (P17706 1-415): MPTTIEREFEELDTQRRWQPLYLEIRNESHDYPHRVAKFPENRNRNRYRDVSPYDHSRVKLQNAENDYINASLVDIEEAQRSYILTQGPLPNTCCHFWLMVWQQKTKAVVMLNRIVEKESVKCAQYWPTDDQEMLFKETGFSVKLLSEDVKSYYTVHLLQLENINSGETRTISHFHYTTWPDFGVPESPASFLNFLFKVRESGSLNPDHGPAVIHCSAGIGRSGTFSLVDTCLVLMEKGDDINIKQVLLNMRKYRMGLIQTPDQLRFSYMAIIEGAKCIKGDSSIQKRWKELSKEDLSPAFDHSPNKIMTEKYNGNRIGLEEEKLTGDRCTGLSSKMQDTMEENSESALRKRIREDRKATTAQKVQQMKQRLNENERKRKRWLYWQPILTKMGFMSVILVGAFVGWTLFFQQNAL
Procedure: The PTPN2 biochemical assay was performed as follows, a 5× stock solution of human PTPN2 (SRP5075, MilliporeSigma, Burlington, MA) and a 1.25× stock solution of DiFMUP (D6567, ThermoFisher Scientific, Waltham, MA), were prepared in 1× reaction buffer consisting of 50 mM HEPES, pH 7.4, 1 mM EDTA, 150 mM NaCl, 0.2 mg/mL BSA, 100 U/mL catalase and 10 mM DTT. […] of the DiFMUP substrate solution, for a final concentration of […] DiFMUP substrate, was added to a Corning 3574 384-well, white, non-binding surface microtiter plate containing […] of serially diluted test compounds prepared in DMSO. The reactions were started with the addition of […] of the enzyme solution, for a final PTPN2 concentration of 0.15 nM, and monitored every 105 seconds for 60 minutes at λEX 360/λEM 460 in a BioTek Synergy HTX plate reader (Agilent Technologies, Santa Clara, CA) at room temperature. The initial linear portions of the progress curves were fit according to a linear equation to yield the slopes and converted to % inhibition based on a value of 100% activity for the no inhibitor treated control. IC50 values of each compound were obtained by fitting the % inhibition-compound concentration curves using Dotmatics software (Dotmatics, Bishops Stortford, Hertfordshire, England).
(§1) For IC50 data, High DDT concentration and/or DiFMUP substrate assays were used; a skilled artisan may use either assay.

human PTPN2 [3] = target: T1, human PTPN2; experiment: PTPN2 BCHEM (PhosphoSens assay, substrate AQT0264); assay type: biochemical; settings: PhosphoSens substrate AQT0264 20 μM, PTPN2 150 pM, room temperature
Procedure: A PhosphoSens® kinase assay was performed as described by the vendor (AssayQuant Technologies, Marlborough, MA). Briefly, 1000× solutions of compounds were prepared in DMSO via serial dilution of the 10 mM DMSO stocks using 3-fold intervals in a 384-well reagent plate. 50 nL of the compound dilution series was then added to the corresponding wells of a 384-well assay plate. 40 mL of 1.25× substrate (AQT0264) in 1× assay buffer (50 mM HEPES pH 7.5, 500 μM EGTA, […] MgCl2, 0.01% Brij-35, 1% Glycerol, 1 mM DTT, and 0.2 mg/mL BSA) was transferred to each well of the assay plate to achieve a final substrate concentration of 20 μM. Finally, […] of 5× PTPN2 enzyme stock was added to each well of the assay plate for a final enzyme concentration of 150 pM. Reaction progress curves were collected by sampling fluorescence intensity at the excitation wavelength 360 nm (λex360) and emission wavelength 480 nm (λem480) every 71 seconds for one hour using a Synergy H4 plate reader (BioTek Instruments/Agilent Technologies, Winooski, VT) at room temperature.
as §1

With `Cn1ccc(NCc2cc(O)c(N3CC(=O)NS3(=O)=O)c(F)c2)n1` [EXAMPLE 6, 5-(2-fluoro-6-hydroxy-4-(((1-methyl-1H-pyrazol-3-yl)amino)methyl)phenyl)-1,2,5-thiadiazolidin-3-one 1,1-dioxide] the EC50 [1] was 6850 nM, the EC50 (B16-F10 cells) was 820 nM and the IC50 (human PTPN2 [2]) was 10 nM.
`Cc1ccc(-c2csc(N(C)Cc3cc(O)c(N4CC(=O)NS4(=O)=O)c(F)c3)n2)c(C)c1` [EXAMPLE 1, 5-(4-(((4-(2,4-dimethylphenyl)thiazol-2-yl)(methyl)amino)methyl)-2-fluoro-6-hydroxyphenyl)-1,2,5-thiadiazolidin-3-one 1,1-dioxide] showed an IC50 (human PTPN2 [3]) of 940 nM, an EC50 [1] of over 15000 nM and an EC50 (B16-F10 cells) of over 15000 nM. For the same compound, the IC50 (human PTPN2 [2]) was 720 nM.
`O=C1CN(c2c(O)cc(CNc3ncc[nH]3)cc2F)S(=O)(=O)N1` [EXAMPLE 10, 5-(4-(((1H-imidazol-2-yl)amino)methyl)-2-fluoro-6-hydroxyphenyl)-1,2,5-thiadiazolidin-3-one 1,1-dioxide] showed an EC50 [1] of 90 nM, an EC50 (B16-F10 cells) of 180 nM and an IC50 (human PTPN2 [2]) of 6 nM.
With `O=C1CN(c2c(O)cc(CNc3nc[nH]n3)cc2F)S(=O)(=O)N1` [EXAMPLE 5, 5-(4-(((1H-1,2,4-triazol-3-yl)amino)methyl)-2-fluoro-6-hydroxyphenyl)-1,2,5-thiadiazolidin-3-one 1,1-dioxide] the EC50 [1] was 930 nM, the EC50 (B16-F10 cells) was 1690 nM and the IC50 (human PTPN2 [2]) was 40 nM.
With `O=C1CN(c2c(O)cc(CNc3nccs3)cc2F)S(=O)(=O)N1` [EXAMPLE 9, 5-(2-fluoro-6-hydroxy-4-((thiazol-2-ylamino)methyl)phenyl)-1,2,5-thiadiazolidin-3-one 1,1-dioxide] the EC50 [1] was 1430 nM, the EC50 (B16-F10 cells) was 2300 nM and the IC50 (human PTPN2 [2]) was 3 nM.
`Cc1cc(NCc2cc(O)c(N3CC(=O)NS3(=O)=O)c(F)c2)no1` [EXAMPLE 4, 5-(2-fluoro-6-hydroxy-4-(((5-methylisoxazol-3-yl)amino)methyl)phenyl)-1,2,5-thiadiazolidin-3-one 1,1-dioxide] showed an IC50 (human PTPN2 [3]) of 20 nM, an EC50 [1] of 350 nM and an EC50 (B16-F10 cells) of 1030 nM. It also gave an IC50 (human PTPN2 [2]) of 30 nM.
`O=C1CN(c2c(O)cc(CNc3cc[nH]n3)cc2F)S(=O)(=O)N1` [EXAMPLE 2, 5-(4-(((1H-pyrazol-3-yl)amino)methyl)-2-fluoro-6-hydroxyphenyl)-1,2,5-thiadiazolidin-3-one 1,1-dioxide] showed an EC50 [1] of over 15000 nM, an EC50 (B16-F10 cells) of over 15000 nM and an IC50 (human PTPN2 [2]) of 20 nM.
`O=C1CN(c2c(O)cc(CNc3ccon3)cc2F)S(=O)(=O)N1` [EXAMPLE 3, 5-(2-fluoro-6-hydroxy-4-((isoxazol-3-ylamino)methyl)phenyl)-1,2,5-thiadiazolidin-3-one 1,1-dioxide] gave an EC50 [1] of 30 nM, an EC50 (B16-F10 cells) of 1120 nM and an IC50 (human PTPN2 [2]) of 20 nM.
Work on `Cc1csc(NCc2cc(O)c(N3CC(=O)NS3(=O)=O)c(F)c2)n1` [EXAMPLE 13, 5-(2-fluoro-6-hydroxy-4-(((4-methylthiazol-2-yl)amino)methyl)phenyl)-1,2,5-thiadiazolidin-3-one 1,1-dioxide] yielded an EC50 [1] of 230 nM, an EC50 (B16-F10 cells) of 1870 nM and an IC50 (human PTPN2 [2]) of 10 nM.
For `O=C1CN(c2c(O)cc(CNc3nncs3)cc2F)S(=O)(=O)N1` [EXAMPLE 7, 5-(4-(((1,3,4-thiadiazol-2-yl)amino)methyl)-2-fluoro-6-hydroxyphenyl)-1,2,5-thiadiazolidin-3-one 1,1-dioxide], the EC50 [1] was 150 nM, the EC50 (B16-F10 cells) was 460 nM and the IC50 (human PTPN2 [2]) was 10 nM.
`Cc1cnc(NCc2cc(O)c(N3CC(=O)NS3(=O)=O)c(F)c2)[nH]1` [EXAMPLE 8, 5-(2-fluoro-6-hydroxy-4-(((5-methyl-1H-imidazol-2-yl)amino)methyl)phenyl)-1,2,5-thiadiazolidin-3-one 1,1-dioxide] showed an EC50 [1] of 4650 nM, an EC50 (B16-F10 cells) of 5900 nM and an IC50 (human PTPN2 [2]) of 160 nM.
For `Cn1ccnc1NCc1cc(O)c(N2CC(=O)NS2(=O)=O)c(F)c1` [EXAMPLE 11, 5-(2-fluoro-6-hydroxy-4-(((1-methyl-1H-imidazol-2-yl)amino)methyl)phenyl)-1,2,5-thiadiazolidin-3-one 1,1-dioxide], the EC50 [1] was 210 nM, the EC50 (B16-F10 cells) was 160 nM and the IC50 (human PTPN2 [2]) was 10 nM.
Compound `Cc1nnc(NCc2cc(O)c(N3CC(=O)NS3(=O)=O)c(F)c2)s1` [EXAMPLE 12, 5-(2-fluoro-6-hydroxy-4-(((5-methyl-1,3,4-thiadiazol-2-yl)amino)methyl)phenyl)-1,2,5-thiadiazolidin-3-one 1,1-dioxide] has an EC50 [1] of 230 nM, an EC50 (B16-F10 cells) of 560 nM and an IC50 (human PTPN2 [2]) of 10 nM.
With `Cc1cc(NCc2cc(O)c(N3CC(=O)NS3(=O)=O)c(F)c2)sn1` [EXAMPLE 14, 5-(2-fluoro-6-hydroxy-4-(((3-methylisothiazol-5-yl)amino)methyl)phenyl)-1,2,5-thiadiazolidin-3-one 1,1-dioxide] the EC50 [1] was 690 nM, the EC50 (B16-F10 cells) was 2570 nM and the IC50 (human PTPN2 [2]) was 20 nM.
With `Cc1cc(NCc2cc(O)c(N3CC(=O)NS3(=O)=O)c(F)c2)[nH]n1` [EXAMPLE 15, 5-(2-fluoro-6-hydroxy-4-(((3-methyl-1H-pyrazol-5-yl)amino)methyl)phenyl)-1,2,5-thiadiazolidin-3-one 1,1-dioxide] the EC50 [1] was 630 nM, the EC50 (B16-F10 cells) was 380 nM and the IC50 (human PTPN2 [2]) was 4 nM.
